The text below walks through data of patent publication US20090227612A1, “Aminopyrimidine Derivatives Inhibiting Protein Kinase Activity, Method For The Preparation Thereof And Pharmaceutical Composition Containing Same” (priority 2005, published 2009).

The test system of series [1] is human colon carcinoma cell line, HCT116. Briefly: Cancer cell proliferation, SRB assay. It is filed as cell-based. The conditions noted are these: HCT116, 48 hours, concentration inhibiting cancer cell proliferation by 50%. As for the experimental part:
(§1) In order to examine the suppressive effect of the inventive aminopyrimidine derivatives on the proliferation of cancer cells through inhibiting the protein kinase activity, a test was performed as follows by employing human colon carcinoma cell line, HCT116 (Korean Cell Line Bank, KCLB10247) and human fetal cell line, MRC-5 (Korean Cell Line Bank, KCLB10171).
(§2) HCT116 and MRC-5 cells were plated into the wells of a 96-well plate containing DMEM (Dulbecco's Modified Eagle Medium) medium at a concentration ranging from 1×10^3 to 3×10^3 cells/well, and cultured under conditions of 5% CO2 and 37° C. for 24 hours. Then, the test compounds of Examples 85 to 88, 97 to 99, 105 to 110 and 115 to 118, and a comparative compound, N-(4-(4-(5-methyl-1H-pyrrole-3-yl-amino)-6-(4-methylpiperazin-1-yl)-1,3,5-triazin-2-ylthio) cyclopropane carboxyamide were added thereto in an amount of 0.2, 1, 5, 25 and 100 μM, respectively. The control was not treated with any compound. The cells were cultured for 48 hours.
(§3) After removing the medium from each wells, the cells were washed about 3 times with phosphate-buffered saline (PBS, pH 7.4), followed by fixing with 50% TCA (trichloroacetic acid) refrigerant solution in an amount of 50 μl/well at 4° C. for 1 hour. The fixed cells were washed 5 times with distilled water and dried in the air, and stained with 50 μl/well of 1% acetic acid containing 0.4% SRB (sulforhodamine B) solution at room temperature for 1 hour. The stained cells were washed 5 times with 1% acetic acid and dried in the air, 150 μl/well of 10 mM Tris-HCl (pH 10.5) were added thereto, and the absorbance of each well was measured at 540 nm. The suppressive value of each compound for cell proliferation was calculated based on the absorbance of the control well, and the results are shown in Table 2. In Table 2, EC50 (μM) was determined as a concentration of the test compound required to inhibit cancer cell proliferation by 50% relative to the control, CC50 (μM) was determined as a concentration of the test compound required to inhibit normal cell proliferation by 50% relative to the control, and the therapeutic index was determined as the value of CC50(μM)/EC50(μM).

A further series deals with T1, Aurora A (Homo sapiens, UniProt O14965).
T1 construct: purchased Upstate
T1 sequence (O14965 1-403): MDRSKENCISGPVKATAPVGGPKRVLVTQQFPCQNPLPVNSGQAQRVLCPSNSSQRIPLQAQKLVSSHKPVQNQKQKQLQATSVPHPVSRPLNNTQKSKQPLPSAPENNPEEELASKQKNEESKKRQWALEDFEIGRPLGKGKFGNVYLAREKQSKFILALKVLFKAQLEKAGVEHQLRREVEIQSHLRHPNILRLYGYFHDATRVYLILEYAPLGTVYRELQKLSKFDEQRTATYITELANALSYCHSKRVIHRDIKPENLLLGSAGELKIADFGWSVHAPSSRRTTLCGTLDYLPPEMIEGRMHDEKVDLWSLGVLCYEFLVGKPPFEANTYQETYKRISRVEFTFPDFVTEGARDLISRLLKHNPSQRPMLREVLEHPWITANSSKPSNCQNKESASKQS
Briefly: Aurora A kinase activity assay (Kemptide substrate, Kinase-Glo residual ATP). It is filed as biochemical. The conditions noted are these: recombinant Aurora A 10 nM, ATP 1 μM, Kemptide 100 μM, 30° C. 1 hour. The protocol:
Further, the test compounds and comparative compound were successively diluted with dimethyl sulfoxide (DMSO) from an initial concentration of 12.5 mM to obtain test solutions and DMSO was used as a control solution. Less than 5% of each test solution or control solution was added to a reaction solution containing 20 mM HEPES (pH 7.5), 5 mM MgCl2, 0.5 mM EGTA, 200 mM KCl, 1 mM DTT and 0.05% triton X-100, and 100 μM of Kemptide peptide (PEPTRON), which is a substrate of aurora kinase, 1 μM of ATP and 10 nM of Aurora A (Upstate), which is a recombinant aurora kinase, were added thereto, followed by reacting each mixture at 30° C. for 1 hour. 25 μl of each reacted solution was mixed with 25 μl of Kinase-Glo™ (promega), and reacted at room temperature for 10 minutes, and the amount of residual ATP therein was measured using Fusion a-FP (Packard). Enzymic activity in each reacted solution was analyzed based on the measured value, and IC50 (μM) was determined as a concentration of the test compound required to inhibit the kinase activity by 50% relatively to the control solution, and the results are shown in Table 2.
On the technique in general: In Kinase-Glo more light means more ATP remaining.

Series [2] can be described thus: Normal cell proliferation, SRB assay. It is filed as cell-based, human. The note with it: human, CC50(μM). As for the experimental part: as §1, §2, §3
In general terms: Sulforhodamine B stains cellular protein and so reports cell mass.

The test system of series [3] is human fetal cell line, MRC-5. Briefly: Normal cell proliferation, SRB assay. It is filed as cell-based. The protocol:
as §1, §2, §3

Usually EC50 stands for the concentration that produces a half-maximal response. Lower therefore signals an effect from little substance. Broadly, the IC50 is the midpoint of a concentration-inhibition curve. Broadly, the CC50 is the concentration at which the toxic effect on the cells reaches its halfway point.

Read-outs that look alike come from different tables or passages of the source.

As for `CC1(C)C2CCC1(C)C(NC(=O)c1ccnc(Nc3ccc(N4CCCCC4)cc3)n1)C2` (stereo not drawn) [Compound 85, 2-(4-(piperidine-1-yl)phenylamino)-N-(1,7,7-trimethylbicyclo[2.2.1]heptane-2-yl)pyrimidine-4-carboxyamide], in series [1] (Homo sapiens, HCT-116, 48 h), the EC50 is 1600 nM. Also, the IC50 on Aurora A was found to be 33 nM. The compound also displayed a CC50 at 48 h in series [2] of 38 µM.

Consider `CN(C)CCNc1ccc(Nc2nccc(C(=O)NC3CC4CCC3(C)C4(C)C)n2)cc1` (stereo not drawn) [Compound 86], for which the EC50 in series [1] (Homo sapiens, HCT-116, 48 h) was found to be 1200 nM. Further, the IC50 on Aurora A worked out at 88 nM. For the same compound, in series [2], the 50% cytotoxic concentration (CC50) at 48 h is more than 100 µM.

For the compound `CC1(C)C2CCC1(C)C(NC(=O)c1ccnc(Nc3ccc(NCCN4CCCC4)cc3)n1)C2` (stereo not drawn) [Compound 88, 2-(4-(2-(pyrrolidine-1-yl)ethylamino)phenyl-amino)-N-(1,7,7-trimethylbicyclo[2.2.1]heptane-2-yl)pyrimidine-carboxamide], in series [1] (Homo sapiens, HCT-116, 48 h), the EC50 was 800 nM. Moreover, the IC50 on Aurora A was found to be 10 nM. This compound also yielded a CC50 at 48 h in series [2] of 24.5 µM.

As to `CC1(C)C2CCC1(C)C(NC(=O)c1ccnc(Nc3cccc(NCCCN4CCOCC4)c3)n1)C2` (stereo not drawn) [Compound 97, 2-(3-(3-morpholinopropylamino)phenylamino)-N-(1,7,7-trimethylbicyclo[2.2.1]hep-tan-2-yl)pyrimidine-4-carboxyamide], the EC50 in series [1] (Homo sapiens, HCT-116, 48 h) came out at 3100 nM. Also, the IC50 at Aurora A is 50 nM. The CC50 at 48 h in series [2] is more than 100 µM.

In series [1], `CC1(C)C2CCC1(C)C(NC(=O)c1ccnc(Nc3cccc(NCCCN4CCOCC4)c3)n1)C2` (stereo not drawn) [Compound 98, 2-(3-(3-morpholinopropylamino)phenylamino)-N-(1,7,7-trimethylbicyclo[2.2.1]hep-tan-2-yl)pyrimidine-4-carboxyamide] gave an EC50 of 3200 nM. In addition, at Aurora A, the half-inhibitory concentration (IC50) is 39 nM. Moreover, the CC50 in series [3] (human, 48 h) turned out to be 52600 nM.

For `COc1ccc(Nc2nccc(C(=O)NC3CC4CCC3(C)C4(C)C)n2)cc1OCCN1CCOCC1` (stereo not drawn) [Compound 99, 2-(4-methoxy-3-(2-morpholinoethoxy)phenyl-amino)-N-(1,7,7-trimethylbicyclo[2.2.1]hep-tan-2-yl)pyrimidine-4-carboxyamide], the response in series [1] (Homo sapiens, HCT-116, 48 h) was half-maximal at 2000 nM (EC50). For the same compound, the IC50 on Aurora A amounted to 23 nM. Besides, in series [2], the CC50 at 48 h was determined as 52 µM.

In series [1] (Homo sapiens, HCT-116, 48 h), `CCN1CCN(c2ccc(Nc3nccc(C(=O)NC4CC5CCC4(C)C5(C)C)n3)cc2)CC1` (stereo not drawn) [Compound 105, 2-(4-(4-ethylpiperazin-1-yl)phenylamino)-N-(1,7,7-trimethylbicyclo[2.2.1]hep-tan-2-yl)pyrimidine-4-carboxyamide] came in with a concentration for a half-maximal effect (EC50) of 500 nM. The IC50 on Aurora A was determined as 17 nM. The compound further yielded a CC50 at 48 h in series [2] of more than 100 µM.

In series [1], `CCN(CC)CCOc1cc(Nc2nccc(C(=O)NC3CC4CCC3(C)C4(C)C)n2)ccc1OC` (stereo not drawn) [Compound 106, 2-(3-(2-(diethylamino)ethoxy)-4-methoxyphenylamino)-N-(1,7,7-trimethylbicyclo[2.2.1]hep-tan-2-yl)pyrimidine-4-carboxyamide] registered an EC50 of 900 nM. Besides, the IC50 on Aurora A was determined as 11 nM. The compound also registered a CC50 in series [3] of 33000 nM.

Take `COc1ccc(Nc2nccc(C(=O)NC3CC4CCC3(C)C4(C)C)n2)cc1OCCN1CCCC1` (stereo not drawn) [Compound 107, 2-(4-methoxy-3-(2-(pyrrolidin-1-yl)ethoxy)phenylamino)-N-(1,7,7-trimethylbicyclo[2.2.1]hep-tan-2-yl)pyrimidine-4-carboxyamide]: in series [1] (Homo sapiens, HCT-116, 48 h), the EC50 worked out at 1200 nM. Moreover, the IC50 on Aurora A came out at 18 nM. In series [2], this compound yielded a half-maximal cytotoxic concentration (CC50) at 48 h of 46 µM.

`CC1(C)C2CCC1(C)C(NC(=O)c1ccnc(Nc3ccc(N4CCN(CCO)CC4)cc3)n1)C2` (stereo not drawn) [Compound 108, 2-(4-(4-(2-hydroxyethyl)piperazin-1-yl)phenylamino)-N-(1,7,7-trimethylbicyclo[2.2.1]hep-tan-2-yl)pyrimidine-4-carboxyamide]: the concentration giving a half-maximal response (EC50) in series [1] (Homo sapiens, HCT-116, 48 h) is 1900 nM. For the same compound, on Aurora A, the IC50 was found to be 10 nM. This compound showed a cytotoxic concentration (CC50) at 48 h in series [2] of 56 µM.

Compound `CC(C)N1CCN(c2ccc(Nc3nccc(C(=O)NC4CC5CCC4(C)C5(C)C)n3)cc2)CC1` (stereo not drawn) [Compound 109, 2-(4-(4-isopropylpiperazin-1-yl)phenylamino)-N-(1,7,7-trimethylbicyclo[2.2.1]hep-tan-2-yl)pyrimidine-4-carboxyamide] had an EC50 in series [1] (Homo sapiens, HCT-116, 48 h) of 2800 nM. Besides, at Aurora A, the half-maximal inhibitory concentration (IC50) was 20 nM. This compound yielded a CC50 at 48 h in series [2] of 23.5 µM.

`CCCN1CCN(c2ccc(Nc3nccc(C(=O)NC4CC5CCC4(C)C5(C)C)n3)cc2)CC1` (stereo not drawn) [Compound 110, 2-(4-(4-propylpiperazin-1-yl)phenylamino)-N-(1,7,7-trimethylbicyclo[2.2.1]hep-tan-2-yl)pyrimidine-4-carboxyamide] yielded an EC50 in series [1] (Homo sapiens, HCT-116, 48 h) of 1900 nM. Further, the IC50 on Aurora A came out at 20 nM. Moreover, the midpoint of cytotoxicity in series [2], the CC50 at 48 h, lay at 32 µM.

With `CC(C)CN1CCN(c2ccc(Nc3nccc(C(=O)NC4CC5CCC4(C)C5(C)C)n3)cc2)CC1` (stereo not drawn) [Compound 115, 2-(4-(4-isobutylpiperazin-1-yl)phenylamino)-N-(1,7,7-trimethylbicyclo-[2.2.1]heptan-2-yl)pyrimidine-4-carboxyamide], a half-maximal effect in series [1] (Homo sapiens, HCT-116, 48 h) (EC50) was put at 3100 nM. At Aurora A, the IC50 amounted to 93 nM. In series [2], this compound came in with a CC50 at 48 h of 100 µM.

`CC1(C)C2CCC1(C)C(NC(=O)c1ccnc(Nc3ccc(N4CCN(CC#N)CC4)cc3)n1)C2` (stereo not drawn) [Compound 116, 2-(4-(4-(cianomethyl)piperazin-1-yl)phenylamino)-N-(1,7,7-trimethylbicyclo [2.2.1]heptan-2-yl)pyrimidine-4-carboxyamide] gave an EC50 in series [1] (Homo sapiens, HCT-116, 48 h) of 1700 nM. Also, the IC50 on Aurora A is 12 nM. Also, in series [2], the midpoint of cytotoxicity, the CC50 at 48 h, lay at 26.6 µM.

For `CC1(C)C2CCC1(C)C(NC(=O)c1ccnc(Nc3cccc(NCC#N)c3)n1)C2` (stereo not drawn) [Compound 118, 2-(3-(cianomethylamino)phenylami-no)-N-(1,7,7-trimethylbicyclo-[2.2.1]heptane-2-yl)pyrimidine-4-carboxyamide], in series [1] (Homo sapiens, HCT-116, 48 h), the EC50 stood at 2800 nM. On Aurora A, the IC50 amounted to 19 nM. The cytotoxic concentration (CC50) at 48 h in series [2] was 62.5 µM.

For “N-(4-(4-(5-methyl-1H-pyrrole-3-yl-amino)-6-(4-methylpiperazin-1-yl)-1,3,5-triazin-2-ylthio) cyclopropane carboxyamide [Comparative compound, reference compound]”, the midpoint of the response in series [1], the EC50, lay at 3000 nM. In addition, the IC50 at Aurora A stood at 19 nM. The CC50 in series [3] (MRC-5, 48 hours, concentration inhibiting normal cell proliferation by 50%, read-out: CC50) was 33000 nM.
